# Results reported in the supplement of paper PMC10307832.
# How the values were obtained:
# Assay in all cases: relative viability (nuclei count vs DMSO), 5 days (fraction); higher = more cells survive
# HARA = tested on: HARA
# Method in brief: (§1)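 After 5 days of treatment, lung cancer cells in 1536-well plates were fixed and stained in a single step (final 0.05% Triton X-100, 1% formaldehyde, 1 ug/ml Hoechst) and their nuclei counted on 4× images. Treatment had been applied by pin tool the day after seeding as one drug alone or as a fixed anchor-drug dose with five library-drug doses (not always all listed) in √10 steps. Relative viability is the nuclei count of treated wells divided by that of vehicle wells, and values are medians of duplicate plates.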
# 201T = tested on: 201T
# Method in brief: as §1
# LXF-289 = tested on: LXF-289
# Method in brief: as §1
# EMC-BAC-2 = tested on: EMC-BAC-2
# Method in brief: as §1
# H3255 = tested on: H3255
# Method in brief: as §1
# RERF-LC-KJ = tested on: RERF-LC-KJ
# Method in brief: as §1
# NCI-H2126 = tested on: NCI-H2126
# Method in brief: as §1
# LOU-NH91 = tested on: LOU-NH91
# Method in brief: as §1
# LU99A = tested on: LU99A
# Method in brief: as §1
# NCI-H2087 = tested on: NCI-H2087
# Method in brief: as §1
# NCI-H1563 = tested on: NCI-H1563
# Method in brief: as §1
# HOP-62 = tested on: HOP-62
# Method in brief: as §1
# NCI-H1993 = tested on: NCI-H1993
# Method in brief: as §1
# UMC-11 = tested on: UMC-11
# Method in brief: as §1
# BEN = tested on: BEN
# Method in brief: as §1
# NCI-H650 = tested on: NCI-H650
# Method in brief: as §1
# COR-L 105 = tested on: COR-L 105
# Method in brief: as §1
# LC-2-ad = tested on: LC-2-ad
# Method in brief: as §1
# HCC-78 = tested on: HCC-78
# Method in brief: as §1
smiles,measurement,setting,value
Cc1cn(-c2cc(NC(=O)c3ccc(C)c(Nc4nccc(-c5cccnc5)n4)c3)cc(C(F)(F)F)c2)cn1 [Nilotinib] + CC(C)C[C@H](NC(=O)[C@H](Cc1ccccc1)NC(=O)c1cnccn1)B(O)O [Bortezomib] (partner 0.002 µM),relative viability,HARA; first compound 0.001 µM,1.17
same,relative viability,HARA; first compound 0.003162 µM,1.25
same,relative viability,HARA; first compound 0.01 µM,1.11
same,relative viability,HARA; first compound 0.03162 µM,1.15
same,relative viability,HARA; first compound 0.1 µM,0.859
same,relative viability,201T; first compound 0.001 µM,1.12
same,relative viability,201T; first compound 0.003162 µM,1.09
same,relative viability,201T; first compound 0.01 µM,1.08
same,relative viability,201T; first compound 0.1 µM,1.11
same,relative viability,LXF-289; first compound 0.001 µM,0.977
same,relative viability,LXF-289; first compound 0.003162 µM,1.22
same,relative viability,LXF-289; first compound 0.01 µM,1.11
same,relative viability,LXF-289; first compound 0.03162 µM,0.977
same,relative viability,LXF-289; first compound 0.1 µM,0.692
same,relative viability,EMC-BAC-2; first compound 0.001 µM,1.03
same,relative viability,EMC-BAC-2; first compound 0.003162 µM,1.08
same,relative viability,EMC-BAC-2; first compound 0.01 µM,1.09
same,relative viability,EMC-BAC-2; first compound 0.03162 µM,0.922
same,relative viability,EMC-BAC-2; first compound 0.1 µM,1.05
same,relative viability,H3255; first compound 0.001 µM,0.917
same,relative viability,H3255; first compound 0.003162 µM,0.656
same,relative viability,H3255; first compound 0.01 µM,0.986
same,relative viability,H3255; first compound 0.03162 µM,0.787
same,relative viability,H3255; first compound 0.1 µM,0.558
same,relative viability,RERF-LC-KJ; first compound 0.001 µM,1.12
same,relative viability,RERF-LC-KJ; first compound 0.003162 µM,1.14
same,relative viability,RERF-LC-KJ; first compound 0.01 µM,1.22
same,relative viability,RERF-LC-KJ; first compound 0.03162 µM,1.05
same,relative viability,RERF-LC-KJ; first compound 0.1 µM,1.02
same,relative viability,NCI-H2126; first compound 0.001 µM,1.12
same,relative viability,NCI-H2126; first compound 0.003162 µM,1.18
same,relative viability,NCI-H2126; first compound 0.01 µM,1.08
same,relative viability,NCI-H2126; first compound 0.03162 µM,1.08
same,relative viability,NCI-H2126; first compound 0.1 µM,0.624
same,relative viability,LOU-NH91; first compound 0.001 µM,0.523
same,relative viability,LOU-NH91; first compound 0.003162 µM,0.46
same,relative viability,LOU-NH91; first compound 0.01 µM,0.404
same,relative viability,LOU-NH91; first compound 0.03162 µM,0.473
same,relative viability,LOU-NH91; first compound 0.1 µM,0.524
same,relative viability,LU99A; first compound 0.001 µM,0.891
same,relative viability,LU99A; first compound 0.003162 µM,1.1
same,relative viability,LU99A; first compound 0.01 µM,1.39
same,relative viability,LU99A; first compound 0.03162 µM,1.19
same,relative viability,LU99A; first compound 0.1 µM,0.371
same,relative viability,NCI-H2087; first compound 0.001 µM,0.693
same,relative viability,NCI-H2087; first compound 0.003162 µM,1.03
same,relative viability,NCI-H2087; first compound 0.01 µM,0.762
same,relative viability,NCI-H2087; first compound 0.03162 µM,0.68
same,relative viability,NCI-H2087; first compound 0.1 µM,0.296
same,relative viability,NCI-H1563; first compound 0.001 µM,0.878
same,relative viability,NCI-H1563; first compound 0.003162 µM,0.84
same,relative viability,NCI-H1563; first compound 0.01 µM,0.79
same,relative viability,NCI-H1563; first compound 0.03162 µM,0.704
same,relative viability,NCI-H1563; first compound 0.1 µM,0.623
same,relative viability,HOP-62; first compound 0.001 µM,0.706
same,relative viability,HOP-62; first compound 0.003162 µM,0.861
same,relative viability,HOP-62; first compound 0.01 µM,0.28
same,relative viability,HOP-62; first compound 0.03162 µM,0.576
same,relative viability,NCI-H1993; first compound 0.001 µM,1.11
same,relative viability,NCI-H1993; first compound 0.003162 µM,0.878
same,relative viability,NCI-H1993; first compound 0.01 µM,1.06
same,relative viability,NCI-H1993; first compound 0.03162 µM,0.896
same,relative viability,NCI-H1993; first compound 0.1 µM,0.953
same,relative viability,UMC-11; first compound 0.001 µM,0.65
same,relative viability,UMC-11; first compound 0.003162 µM,0.658
same,relative viability,UMC-11; first compound 0.01 µM,0.806
same,relative viability,UMC-11; first compound 0.1 µM,0.333
same,relative viability,BEN; first compound 0.001 µM,0.782
same,relative viability,BEN; first compound 0.003162 µM,0.843
same,relative viability,BEN; first compound 0.01 µM,0.788
same,relative viability,BEN; first compound 0.1 µM,0.721
same,relative viability,NCI-H650; first compound 0.001 µM,0.754
same,relative viability,NCI-H650; first compound 0.003162 µM,0.76
same,relative viability,NCI-H650; first compound 0.01 µM,0.923
same,relative viability,NCI-H650; first compound 0.03162 µM,0.794
same,relative viability,NCI-H650; first compound 0.1 µM,0.714
same,relative viability,COR-L 105; first compound 0.001 µM,0.903
same,relative viability,COR-L 105; first compound 0.01 µM,0.812
same,relative viability,COR-L 105; first compound 0.03162 µM,0.601
same,relative viability,COR-L 105; first compound 0.1 µM,0.333
same,relative viability,LC-2-ad; first compound 0.001 µM,0.914
same,relative viability,LC-2-ad; first compound 0.003162 µM,1.17
same,relative viability,LC-2-ad; first compound 0.01 µM,0.983
same,relative viability,LC-2-ad; first compound 0.03162 µM,0.992
same,relative viability,LC-2-ad; first compound 0.1 µM,0.527
same,relative viability,HCC-78; first compound 0.001 µM,0.433
same,relative viability,HCC-78; first compound 0.003162 µM,0.514
same,relative viability,HCC-78; first compound 0.01 µM,0.654
same,relative viability,HCC-78; first compound 0.03162 µM,0.55
same,relative viability,HCC-78; first compound 0.1 µM,0.518
